Experimental data reported in patent publication US20240358692A1, “TREATMENT OF SCLERODERMA” (Aisa Pharma, Inc., priority 2023, published 2024).

Experiments:
participants with SSc-RP [1] = assay: Average duration of weekly RP attacks (minutes), patient diary; type: in vivo, human; settings: Pooled Cilnidipine
Description: The absolute change in average duration of weekly RP attacks from baseline to the end of each dosing period was and will be a secondary outcome variable. The sponsor-developed participant-informed diary was and will be used to record data. Average duration of weekly RP attacks is defined as the total duration of RP attacks divided by total number of RP attacks within the last 7 days of each dosing period. Total duration of RP attacks during the last 7 days of screening period divided by the total number of RP attacks will be used as baseline for the analysis of all periods. The variable will be calculated similar to frequency data as before.

participants with SSc-RP [2] = assay: Frequency of weekly RP attacks (all attacks; primary endpoint), patient diary; type: in vivo, human; settings: for Weekly RP Attacks (All Attacks) Change from Baseline, Mean / Weekly RP Attacks (All Attacks) Change from Baseline, Median / Weekly RP Attacks (All Attacks) Percent Change from Baseline, Mean / Weekly RP Attacks (All Attacks) Percent Change from Baseline, Median / Weekly RP Attacks (All Attacks), Mean / Weekly RP Attacks (All Attacks), Median: ITT Part A
Description: Percent change from baseline evaluation for frequency of weekly RP attacks were or will be used as the primary efficacy variable. The sponsor-developed participant-informed diary will be used to record data. Frequency of weekly RP attacks is defined as the total number of RP attacks divided by the number of days with available diary data within the last 7 days of each dosing period then multiplied by 7. Total number of RP attacks during the last 7 days of screening period divided by the number of days with available data then multiplied by 7 will be used as baseline for the analysis of all periods. The variable will be calculated as follows: […]
Percent change from baseline evaluation for frequency of weekly RP attacks was and will be the primary efficacy endpoint. Frequency of weekly RP attacks is defined as the total number of RP attacks divided by the number of days with available diary data within the last 7 days of each dosing period then multiplied by 7. Total number of RP attacks during the last 7 days of screening period divided by the number of days with available data then multiplied by 7 will be used as baseline for the analysis of all periods.

[3] = by Baseline RCS, first RCS subgroup of table (not named), ITT Population - Part A
[4] = by Baseline RCS, first subgroup of table, ITT Population - Part A
[5] = excluding outliers, 1st baseline RCS subgroup, ITT Part A
[6] = Cilnidipine 10 mg, Baseline RCS stratum 1 (upper half of table)
[7] = Cilnidipine 10 mg, Excluding Outliers, Baseline RCS stratum 1 (upper half of table)
[8] = Cilnidipine 20 mg, Baseline RCS stratum 1 (upper half of table)
[9] = Cilnidipine 20 mg, Excluding Outliers, Baseline RCS stratum 1 (upper half of table)
[10] = Pooled Cilnidipine 10 mg and Cilnidipine 10 mg + Tadalafil 5 mg, Baseline RCS stratum 2 (lower half of table)
[11] = Pooled Cilnidipine 10 mg and Cilnidipine 10 mg + Tadalafil 5 mg, Excluding Outliers, Baseline RCS stratum 1 (upper half of table)
[12] = Pooled Cilnidipine 10 mg and Cilnidipine 10 mg + Tadalafil 5 mg, Excluding Outliers, Baseline RCS stratum 2 (lower half of table)
[13] = Pooled Cilnidipine 10 mg and Cilnidipine 10 mg + Tadalafil 5 mg, n=3, excluding outliers, last 7 days of dosing
[14] = Pooled Cilnidipine 10 mg and Cilnidipine 10 mg + Tadalafil 5 mg, n=3, last 7 days of dosing
[15] = Pooled Cilnidipine 20 mg and Cilnidipine 20 mg + Tadalafil 5 mg, Baseline RCS stratum 1 (upper half of table)

COCCOC(=O)C1=C(C)NC(C)=C(C(=O)OC/C=C/c2ccccc2)C1c1cccc([N+](=O)[O-])c1 (centres unmarked) [Cilnidipine]
Change from Baseline in average duration of weekly symptomatic RP attacks, Median (participants with SSc-RP [1]; [3]): -10.33 min
Percent Change from Baseline in average duration of weekly symptomatic RP attacks, Mean (participants with SSc-RP [1]; [3]): −32.23%
Percent Change from Baseline in average duration of weekly symptomatic RP attacks, Median (participants with SSc-RP [1]; [3]): −34.60%
Average Duration of Weekly RP Attacks (All Attacks), Mean (participants with SSc-RP [1]; [4]): 21.66 min
Average Duration of Weekly RP Attacks (All Attacks), Median (participants with SSc-RP [1]; [4]): 30.45 min
Average duration of weekly RP attacks, Change from Baseline, Median (participants with SSc-RP [1]; [5]): -7.63 min
Average duration of weekly RP attacks, Percent Change from Baseline, Mean (participants with SSc-RP [1]; [5]): −23.71%
Weekly RP Attacks (All Attacks) Change from Baseline, Mean (participants with SSc-RP [2]; [6]): −9.00
Weekly RP Attacks (All Attacks) Change from Baseline, Median (participants with SSc-RP [2]; [6]): −9.00
Weekly RP Attacks (All Attacks) Percent Change from Baseline, Mean (participants with SSc-RP [2]; [6]): −28.13%
Weekly RP Attacks (All Attacks) Percent Change from Baseline, Median (participants with SSc-RP [2]; [6]): −28.13%
Weekly RP Attacks (All Attacks), Mean (participants with SSc-RP [2]; [6]): 23.00
Weekly RP Attacks (All Attacks), Median (participants with SSc-RP [2]; [6]): 23.00
Weekly RP Attacks (All Attacks) Change from Baseline, Mean (participants with SSc-RP [2]; [7]): −9.00
Weekly RP Attacks (All Attacks) Change from Baseline, Median (participants with SSc-RP [2]; [7]): −9.00
Weekly RP Attacks (All Attacks) Percent Change from Baseline, Mean (participants with SSc-RP [2]; [7]): −28.13%
Weekly RP Attacks (All Attacks) Percent Change from Baseline, Median (participants with SSc-RP [2]; [7]): −28.13%
Weekly RP Attacks (All Attacks), Mean (participants with SSc-RP [2]; [7]): 23.00
Weekly RP Attacks (All Attacks), Median (participants with SSc-RP [2]; [7]): 23.00
Weekly attack frequency (change) (participants with SSc-RP [2]; Cilnidipine 20 mg (n = 3)): −43%
Weekly RP Attacks (All Attacks) Change from Baseline, Mean (participants with SSc-RP [2]; [8]): −6.67
Weekly RP Attacks (All Attacks) Change from Baseline, Median (participants with SSc-RP [2]; [8]): −6.67
Weekly RP Attacks (All Attacks) Percent Change from Baseline, Mean (participants with SSc-RP [2]; [8]): −45.71%
Weekly RP Attacks (All Attacks) Percent Change from Baseline, Median (participants with SSc-RP [2]; [8]): −45.71%
Weekly RP Attacks (All Attacks), Mean (participants with SSc-RP [2]; [8]): 8.00
Weekly RP Attacks (All Attacks), Median (participants with SSc-RP [2]; [8]): 8.00
Weekly RP Attacks (All Attacks) Change from Baseline, Mean (participants with SSc-RP [2]; [9]): −6.67
Weekly RP Attacks (All Attacks) Change from Baseline, Median (participants with SSc-RP [2]; [9]): −6.67
Weekly RP Attacks (All Attacks) Percent Change from Baseline, Mean (participants with SSc-RP [2]; [9]): −45.71%
Weekly RP Attacks (All Attacks) Percent Change from Baseline, Median (participants with SSc-RP [2]; [9]): −45.71%
Weekly RP Attacks (All Attacks), Mean (participants with SSc-RP [2]; [9]): 8.00
Weekly RP Attacks (All Attacks), Median (participants with SSc-RP [2]; [9]): 8.00
Weekly RP Attacks (All Attacks) Change from Baseline, Median (participants with SSc-RP [2]; [10]): −5.00
Weekly RP Attacks (All Attacks), Median (participants with SSc-RP [2]; [10]): 6.00
Weekly RP Attacks (All Attacks) Change from Baseline, Mean (participants with SSc-RP [2]; [11]): −6.50
Weekly RP Attacks (All Attacks) Change from Baseline, Median (participants with SSc-RP [2]; [11]): −6.50
Weekly RP Attacks (All Attacks) Percent Change from Baseline, Mean (participants with SSc-RP [2]; [11]): −36.28%
Weekly RP Attacks (All Attacks) Percent Change from Baseline, Median (participants with SSc-RP [2]; [11]): −36.28%
Weekly RP Attacks (All Attacks), Mean (participants with SSc-RP [2]; [11]): 14.00
Weekly RP Attacks (All Attacks), Median (participants with SSc-RP [2]; [11]): 14.00
Weekly RP Attacks (All Attacks) Change from Baseline, Mean (participants with SSc-RP [2]; [12]): −5.00
Weekly RP Attacks (All Attacks) Change from Baseline, Median (participants with SSc-RP [2]; [12]): −5.00
Weekly RP Attacks (All Attacks) Percent Change from Baseline, Mean (participants with SSc-RP [2]; [12]): −45.45%
Weekly RP Attacks (All Attacks) Percent Change from Baseline, Median (participants with SSc-RP [2]; [12]): −45.45%
Weekly RP Attacks (All Attacks), Mean (participants with SSc-RP [2]; [12]): 6.00
Weekly RP Attacks (All Attacks), Median (participants with SSc-RP [2]; [12]): 6.00
Weekly RP Attacks (All Attacks) Change from Baseline, Mean (participants with SSc-RP [2]; [13]): −6.00
Weekly RP Attacks (All Attacks) Change from Baseline, Median (participants with SSc-RP [2]; [13]): −5.00
Weekly RP Attacks (All Attacks) Percent Change from Baseline, Mean (participants with SSc-RP [2]; [13]): −39.34%
Weekly RP Attacks (All Attacks) Percent Change from Baseline, Median (participants with SSc-RP [2]; [13]): −44.44%
Weekly RP Attacks (All Attacks), Mean (participants with SSc-RP [2]; [13]): 11.33
Weekly RP Attacks (All Attacks), Median (participants with SSc-RP [2]; [13]): 6.00
Weekly RP Attacks (All Attacks) Change from Baseline, Mean (participants with SSc-RP [2]; [14]): −6.00
Weekly RP Attacks (All Attacks) Change from Baseline, Median (participants with SSc-RP [2]; [14]): −5.00
Weekly RP Attacks (All Attacks) Percent Change from Baseline, Mean (participants with SSc-RP [2]; [14]): −39.34%
Weekly RP Attacks (All Attacks) Percent Change from Baseline, Median (participants with SSc-RP [2]; [14]): −44.44%
Weekly RP Attacks (All Attacks), Mean (participants with SSc-RP [2]; [14]): 11.33
Weekly RP Attacks (All Attacks), Median (participants with SSc-RP [2]; [14]): 6.00
Weekly RP Attacks (All Attacks) Percent Change from Baseline, Median (participants with SSc-RP [2]; [15]): −45.00%
Weekly RP Attacks (All Attacks), Median (participants with SSc-RP [2]; [15]): 11.00
Weekly RP Attacks (All Attacks), Median (participants with SSc-RP [2]; Pooled Cilnidipine 20 mg and Cilnidipine 20 mg + Tadalafil 5 mg, Baseline RCS stratum 2 (lower half of table)): 11.00
Weekly RP Attacks (All Attacks) Change from Baseline, Mean (participants with SSc-RP [2]; Pooled Cilnidipine 20 mg and Cilnidipine 20 mg + Tadalafil 5 mg, Excluding Outliers, Baseline RCS stratum 1 (upper half of table)): −5.78
